In patent publication US5696276A, “Process for preparing 5,8-dihydroxynaphthoquinone derivatives, novel 5,8-dihydroxynaphthoquinone derivatives and their use as anticancer agent” (Kuhnil Pharmaceutical Co., Ltd., priority 1993, dated 1997):
Converted amounts (≈) assume the structure as drawn.

Experiments:
[1] = tested on: L1210 cells; test: Cytotoxic activity against L1210 cells; format: cell-based; settings: Mus musculus; L1210 cells, 48 hours, 37° C.; read-out: ED50, cytotoxic activity against L1210
Description: To obtain L1210 cells in a logarithmic phase for cytotoxic activity test, in a 250 ml Erlenmeyer flask with a screw cap including Fisher medium warmed to 36° to 37° C. L1210 cells were adjusted to a concentration of 2-3×10^5 cells/ml and then cultured, before 24 hours from the beginning of experiment. Then, the culture solution thus obtained was suspended to prepare a L1210 cell suspension having a concentration of about 0.8-1.0×10^6 cells/ml. Test sample was dissoved in ethanol or dimethylsulfoxide in a certain concentration just before the experiment. 0.1 ml of the sample solution was diluted 10 times with 0.9 ml of a fresh medium. To each screw-capped test tube were added 100, 50, 25 μl, respectively, of the sample dilutions and then added 5 ml of the cell suspension (5×10^4 cells/ml) prepared above to use as the test group. To the test tubes for the control group (2√n: n=number of the samples), only 5 ml of the cell suspension was added. All test tubes were cultured for 48 hours in a CO2 incubator at 37° C. and then the number of cells was counted using a haemacytometer.
(§1) The ED50 value is defined as a concentration (μg/ml) of the sample which inhibits the growth of cancer cells by 50% of the control group and determined according to a method described in NIC's mannual (NIC=National Cancer Institue, U.S.A.). The growth rate Y(%) of cells in the presence of the test sample in each concentration was calculated according to the followign equation: […]
(§2) In the above equation, T means the average cell number per ml in the test group after incubation for 48 hours in the presence of the test samples in each concentration, C means the average cell number per ml in the control group after incubation for 48 hours, and Co means the average cell number per ml in the control group at the beginning of incubation. The Y(%) value at each concentration and log10 value of each concentration were obtained and the regression curve was constructed according to the following equation from those obtained values. In this case, when all the Y(%) value obtained at each concentration is greater than 55% or lower than 45%, the experiment was repeatedly conducted.
(§3) To construct the regression curve Y=A+BX the values A and B were obtained using the following equation. [formula]
(§4) In the above, the value N is the number of selected points which is greater than 2 and lower than, or identical with, the number of cencentration of the test sample, Xi is log(concentration) i, and Yi is the growth ratio at (concentration)i. The value of ED50 was obtained for those obtained slope and intercept.

[2] = tested on: K-562 cells; test: Cytotoxic activity against K-562 cells; format: cell-based; settings: Homo sapiens; K562 cells, 48 hours, 37° C.; read-out: ED50, cytotoxic activity against K562
Description: As in the test for the cytotoxic activity against L1210 cells, the test samples were dissoved in ethanol or dimethylsulfoxide in a certain concentration. 0.1 ml of the sample solution was mixed with 0.9 ml of a fresh medium to prepare the dilutions. To each two test tubes having a screw cap were added 100, 50, 25 μl, respectively, of the sample dilutions by means of a micropipet. To each test tube for the test group and the control group (2√n: n=number of the samples) was added 5 ml of the dilutions of HL-60 cells and K-562 cells which were cultured and activated before 24 hours from the beginning of experiment and then diluted in a concentration of 1×10^5 cells/mi. All test tubes were cultured for 48 hours in a CO2 incubator at 37° C. and then the number of cells was counted using a haemacytometer.
as §1, §2, §3, §4

[3] = tested on: A549 cancer cells; test: Cytotoxic activity against A549 cancer cells (sulforhodamin B method); format: cell-based; settings: Homo sapiens; A549 cells, SRB method, 48 hours; read-out: ED50, cytotoxic activity against A549
Description: The cytotoxic activity against A549 cancer cells was determined using a method for measuring sulforhodamin B (SRB), which was developed in the year 1989 by NIC for measuring anticancer activity of the drug in vitro. For the experiment, cells under subculturing were separated from the attached surface with trypsin-CDTA solution and then dispensed into a 24-well flat-bottom microplate (Falcon) so that the number of cells per well is 8×10^4 (A549). The microplate was incubated in a CO2 incubator for 24 hours to attach the dispensed cells to bottom. The medium was removed with aspirator. Then, 100 μl of the solution of the test compounds diluted in a log-dose of 6 kinds of concentration was added to each well containing cells, in a multiple of 3. The microplate was incubated for further 48 hours. In addition, the diluted solution of the test compounds above was filtered through a 0.22 μm filter, before addition to the cells, to keep the experiment under sterilized condition. The cells were incubated with the test compounds for 48 hours and then the medium was removed from each well. 100 μl of 10% trichloroacetic acid (TCA) was added to each well and then the plate was allowed to stand at 4° C. for one hour to fix the cells to the bottom of plate. After fixing the cells, the plate was washed 5 to 6 times with water to completely remove any remaining TCA solution and then dried at room temperature until water is no longer present. To the completely dried plate was added the dying solution of 0.4% SRB dissolved in 1% acetic acid in an amount of 250 μl per well to stain the cells for 30 minutes and then the plate was washed again 5 to 6 times with 1% acetic acid solution to remove the remaining SRB which is not bound to the cells. The stained cell plate was dried again at room temperature. Then, the dying solution was carefully dissolved in a certain amount of 10 mM Tris so that the O.D. value in the control group at 520 nm is 0.8-1.0 Å (optical density), and the optical density at 520nm was determined. The ED50 value was obtained from the determined optical density. To calculate the activity of the drug against cancer cells, the number of cells (Tz) at the beginning of the addition of drug, the number of cells (C) after incubation with the medium in the absence of drug for 48 hours and the number of cells (T) after incubation in the presence of drugs at each concentration for 48 hours were determined.
The anticancer activity of the test compounds was determined form the following equations. Specifically, in the […] the equation (T-Tz)/(C-Tz)×100 was used and in the case of Tz<T the equation (T-Tz)/Tz×100 was used. Then the IC50 value wich is the concentration of drug which inhibits the growth of cancer cells by 50% was calcualted from the above calculated values using a data regressive function of LOTUS programme and the cytotoxic activities of the test compounds were compared with each other.

[4] = tested on: S-180 sarcoma cells; test: Animal experiment using Sarcoma S-180 cells (survival of mouse); format: in vivo, male ICR mouse; settings: ip, S-180 ICR mouse, intraperitoneal, 7 to 8 injections; for responders at 10 µmol/kg / responders at 15 µmol/kg / responders at 5 µmol/kg: 1200 h, read-out: Number of mouse survived for 50 days (converted); for responders at 10 µmol/kg / response vs control in vivo at 10 µmol/kg: daily dose 10 μmole (mg/kg/day given per compound); for response vs control in vivo at 10 µmol/kg / response vs control in vivo at 15 µmol/kg / response vs control in vivo at 5 µmol/kg: read-out: T/C; for responders at 15 µmol/kg / response vs control in vivo at 15 µmol/kg: daily dose 15 μmole (mg/kg/day given per compound); for responders at 5 µmol/kg / response vs control in vivo at 5 µmol/kg: daily dose 5 μmole (mg/kg/day given per compound)
Description: In this experiment, healthy male ICR mouse weighing 20 to 25 g were used as test animal and were fed with water and feed without any restriction in the chamber controlled at the temperature of 23° to 24° C. As the feed, the antibiotic-free feed for mouse was used.
S-180 cells which were incubated for 7 days within abdominal cavity of ICR mouse were separated together with ascites. To the separated cells was added sterilized cold physiological saline and the mixture was centrifuged with 400×g for 2 minutes to separate the cell precipitate. The separated cell precipitate was suspended again in sterilized cold physiological saline and then centrifuged to remove the supernatant. Only S-180 cells were taken, excluding any red bllod cells incorporated therein, washed three times with the same method as above, and then suspended to obtain the cell suspension in concentration of 10^7 cells/ml by counting the number of cells with a haemacytometer. Each 0.1 ml of this cell suspension was transplanted in an abdominal cavity.
After 24 hours from the transplantation, mouse were divided so that each group contains 8 to 9 mouse. The test sample was dissolved in a predetermined amount of dimethylsulfoxide to prepare the stock solution which was stored at 4° C. 30 μl of the stock solution was taken and then mixed with 1.5 ml of physiological saline. 0.1 ml of this mixture was intraperitoneally injected to the test animal. To the control group, 2% dimethylsulfoxide-physiological saline solution was injected. Meanwhile, doxorubicin which is used as the comparative drug was dissolved in 2% dimethylsulfoxide-physiological saline solution and then injected in an amount of 0.5 mg(titer)/kg. The schedule for injection comprises a total of 7 to 8 injections in the manner that after the transplantation of cancer cells 0.1 ml of the test sample per a day is administered for 2 to 4 days followed by the rest for one day. The survival rate was calculated on the basis of the date on which all of one control group is died (approximately 18 to 20 days). The survival rate (T/C, %) was calculated by the following equation as proposed in NIC's protocol: [formula]

| SMILES | IC50 [1] | IC50 [2] | IC50 [3] | responders at 10 µmol/kg [4] | response vs control in vivo at 10 µmol/kg [4] | responders at 15 µmol/kg [4] | response vs control in vivo at 15 µmol/kg [4] | responders at 5 µmol/kg [4] | response vs control in vivo at 5 µmol/kg [4] |
| --- | --- | --- | --- | --- | --- | --- | --- | --- | --- |
| COC(CCC(C)C)C1=CC(=O)c2c(O)ccc(O)c2C1=O (stereo not shown) [2-(1-methoxy-4-methylpentyl)-5,8-dihydroxy-1,4-naphthoquinone] | 0.05 µg/mL (≈ 0.164 µM) | 0.07 µg/mL (≈ 0.23 µM) | 1.5 µg/mL (≈ 4.93 µM) | 0% | 126% | – | – | – | – |
| COc1ccc(OC)c2c1C(=O)C=C(C(O)CCC(C)C)C2=O (stereo not shown) [2-(1-hydroxy-4-methylpentyl)-5,8-dimethoxy-1,4-naphthoquinone] | 0.02 µg/mL (≈ 0.0628 µM) | 0.9 µg/mL (≈ 2.83 µM) | 2.2 µg/mL (≈ 6.91 µM) | 0% | 120% | – | – | – | – |
| CCCCCCCC(=O)OC(CCC(C)C)C1=CC(=O)c2c(O)ccc(O)c2C1=O (stereo not shown) [2-(1-octanoyloxy-4-methylpentyl)-5,8-dihydroxy-1,4-naphthoquinone] | 0.5 µg/mL (≈ 1.2 µM) | 0.6 µg/mL (≈ 1.44 µM) | 1.7 µg/mL (≈ 4.08 µM) | – | – | 0% | 131% | – | – |
| CCCCCC(OC(C)=O)C1=CC(=O)c2c(O)ccc(O)c2C1=O (stereo not shown) [2-(1-acetoxyhexyl)-5,8-dihydroxy-1,4-naphthoquinone] | 0.08 µg/mL (≈ 0.241 µM) | 0.01 µg/mL (≈ 0.0301 µM) | 0.7 µg/mL (≈ 2.11 µM) | – | – | – | – | 25% | 150% |
| CCCCCCCCCCCCC(OC(C)=O)C1=CC(=O)c2c(O)ccc(O)c2C1=O (stereo not shown) [2-(1-acetoxytridecyl)-5,8-dihydroxy-1,4-naphthoquinone] | 0.4 µg/mL (≈ 0.929 µM) | 4.2 µg/mL (≈ 9.76 µM) | 15.8 µg/mL (≈ 36.7 µM) | 14.3% | 131% | – | – | – | – |
| CCCCCCCCCCCCC(O)C1=CC(=O)c2c(O)ccc(O)c2C1=O (stereo not shown) [2-(1-hydroxytridecyl)-5,8-dihydroxy-1,4-naphthoquinone] | 0.3 µg/mL (≈ 0.772 µM) | 0.4 µg/mL (≈ 1.03 µM) | 4.4 µg/mL (≈ 11.3 µM) | 0% | 113% | – | – | – | – |
| CCCCCCCCCC(OC(C)=O)C1=CC(=O)c2c(O)ccc(O)c2C1=O (stereo not shown) [2-(1-acetoxydecyl)-5,8-dihydroxy-1,4-naphthoquinone] | 0.4 µg/mL (≈ 1.03 µM) | 0.1 µg/mL (≈ 0.257 µM) | 0.3 µg/mL (≈ 0.772 µM) | 14.3% | 197% | – | – | – | – |
| CC(C)CCC(O)C1=CC(=O)c2c(O)ccc(O)c2C1=O (stereo not shown) [2-(1-hydroxy-4-methylpentyl)-5,8-dihydroxy-1,4-naphthoquinone, reference compound] | 0.05 µg/mL (≈ 0.172 µM) | 0.01 µg/mL (≈ 0.0344 µM) | 0.9 µg/mL (≈ 3.1 µM) | – | – | – | – | 0% | 120% |
| CC(C)CCOC(CCC(C)C)C1=CC(=O)c2c(O)ccc(O)c2C1=O (stereo not shown) [2-[1-(3-methylbutoxy)-4-methylpentyl]-5,8-dihydroxy-1,4-naphthoquinone] | 0.2 µg/mL (≈ 0.555 µM) | 0.09 µg/mL (≈ 0.25 µM) | 1.1 µg/mL (≈ 3.05 µM) | – | – | 0% | 186% | – | – |
| CCCCCC(=O)OC(CCC(C)C)C1=CC(=O)c2c(O)ccc(O)c2C1=O (stereo not shown) | 0.3 µg/mL (≈ 0.772 µM) | 0.05 µg/mL (≈ 0.129 µM) | 0.4 µg/mL (≈ 1.03 µM) | 0% | 151% | – | – | – | – |
| CC/C=C/CC(=O)OC(CCC(C)C)C1=CC(=O)c2c(O)ccc(O)c2C1=O (stereo not drawn) [2-[1-(3-trans-hexenoyloxy)-4-methylpentyl]-5,8-dihydroxy-1,4-naphthoquinone] | 0.05 µg/mL (≈ 0.129 µM) | 0.2 µg/mL (≈ 0.518 µM) | 2.4 µg/mL (≈ 6.21 µM) | 0% | 160% | – | – | – | – |
